{"source": "patent US11185523B2", "about": "“Use of bipolar trans carotenoids with chemotherapy and radiotherapy for treatment of cancer” (DIFFUSION PHARMACEUTICALS LLC, priority 2016, dated 2021)", "key": {"Hemorrhagic Shock": {"tested_on": "Hemorrhagic Shock", "assay": "Pre-clinical efficacy study: Hemorrhagic Shock", "type": "in vivo", "from_the_text": "(§1) It has also been determined that several non-cancer disorders are beneficially treated utilizing an administration regimen of a bipolar trans carotenoid such as TSC, as described below."}, "Ischemic Stroke": {"tested_on": "Ischemic Stroke", "assay": "Pre-clinical efficacy study: Ischemic Stroke", "type": "in vivo", "from_the_text": "as §1"}, "DMBA breast tumors": {"tested_on": "DMBA breast tumors", "assay": "DMBA breast tumor model, TSC before chemotherapy", "type": "in vivo", "conditions": "for tumor growth, timing of TSC injection: Day 2, FIG. 5", "experimental": "Breast tumors were induced through injection of DMBA (dimethylbenzantracene) under the mammary tissue of female rats. The tumors usually grow in most rats and reach measurable conditions after 10 days.\nThe following studies used a method in which a 3-mL syringe is filled first with 1 ml of DMBA dissolved in sunflower seed oil (20 mg DMBA per mL of solution). Following that, 2 mL's of air are pulled into the syringe. The needle of the syringe is then inserted under the mammary tissue near a hind leg and the air in the syringe is carefully injected. The injection of the air forms a “pocket”, and then the 1 mL of DMBA solution is injected into that pocket.\nAfter the tumors have grown up (about 10 days), their volumes are estimated by measuring the diameter (d) and the length (L) of the football-shaped tumors formed. This is done using calipers after feeling the tumor with one's fingers. To estimate the volume of the tumor, you multiply the diameter squared times the length and divide by 2: Tumor volume (in mm3)={(d in mm)^22}×(L in mm)\nTSC or saline (controls) was injected in the tail vein of the rats at a volume of 0.1 mL and a dose of 0.25 mg/kg TSC about 1-2 hours before the chemotherapeutic agent was injected intraperitoneally (IP) in the rats.\nIn order to understand which dosages are efficacious when used with chemotherapy, a rat model of breast tumors was used. The model involves injecting the chemical dimethylbenzanthracene (DMBA) under the mammary gland of a female Sprague-Dawley rat. After a few days, tumors begin to grow and can be measured by feeling the football-shaped tumor under the skin and measured using calipers."}, "Critical Limb Ischemia": {"tested_on": "Critical Limb Ischemia", "assay": "Pre-clinical efficacy study: Critical Limb Ischemia", "type": "in vivo", "conditions": "Mouse", "from_the_text": "as §1"}, "[1]": {"assay": "Change in partial pressure of oxygen, low vs high efficacious dose (FIG. 1)", "type": "in vivo", "conditions": "FIG. 1 hyperoxic rat", "experimental": "FIG. 1 illustrates the change in partial pressure of oxygen of a hyperoxic rat resulting from administration of a low efficacious dose amount compared to a high efficacious dose amount of TSC.\nIt has been discovered that for a mammal, there are two concentrations of a bipolar trans carotenoid, such as TSC, that result in increased oxygen partial pressure—the “low” dose and the “high” dose—in a tumor. For humans, the low dose range is 0.15-0.35 mg/kg and the high dose range is 0.75 to 2.0 mg/kg. Both doses result in approximately the same maximum increase in oxygen partial pressure."}, "Parkinson's Disease": {"tested_on": "Parkinson's Disease", "assay": "Pre-clinical efficacy study: Parkinson's Disease", "type": "in vivo", "conditions": "Rat", "from_the_text": "as §1"}, "hypoxic tissue": {"tested_on": "hypoxic tissue", "assay": "Reoxygenation of hypoxic tissue after low and high dose", "type": "in vivo, human", "conditions": "humans", "from_the_text": "With bipolar trans carotenoids such as TSC, there are discrete concentrations that produce efficacy in causing maximum oxygen partial pressure in animals or humans."}, "Myocardial Infarction": {"tested_on": "Myocardial Infarction", "assay": "Pre-clinical efficacy study: Myocardial Infarction", "type": "in vivo", "conditions": "Pig", "from_the_text": "as §1"}, "newly diagnosed GBM": {"tested_on": "newly diagnosed GBM", "assay": "Phase ½ clinical trial of TSC with RT and TMZ in GBM", "type": "in vivo, human", "conditions": "for Observed Survival Rate with TSC Treatment (Kaplan-Meier): TSC 0.25 mg/kg IV 3 times per week about 45 minutes prior to RT, plus TMZ", "from_the_text": "To date, TSC has been used in 148 human subjects […] […] A Phase 1⁄2 clinical trial was recently completed examining TSC in patients with GBM. The Phase 1⁄2 clinical trial in GBM enrolled 59 patients with newly diagnosed disease that received TSC in conjunction with radiation therapy (RT) and temozolomide (TMZ). In the Phase I portion of the trial TSC was initially administered three times per week at half-dose to three patients prior to radiation. Six additional patients received full dose TSC for six weeks in combination with radiation. […] Fifty additional patients were enrolled in the Phase II trial at full dose TSC in combination with TMZ and RT. Four weeks after completion of RT, all patients resumed TMZ for five days every four weeks, but no further TSC was administered. More specifically, fifty-nine patients with newly-diagnosed GBM were enrolled. Patients received standard of care (SOC) radiation therapy (RT) (2 Gy/day, 5 days/week for 6 weeks) and TMZ (75 mg/m2) starting within 5 weeks after a surgical resection of their tumor, if such surgery were possible. Patients receiving only needle biopsies (i.e., no surgery) were also enrolled. In addition to the SOC, TSC was administered 3 times per week, 0.25 mg/kg IV, usually on Monday, Wednesday and Friday, about 45 minutes prior to the RT sessions. Four weeks after completion of RT, patients began chemotherapy with TMZ for 5 days of the first week of a 4 week cycle. This continued for 6 such cycles. No TSC was administered during this chemotherapy."}, "Cancer Chemosensitizer": {"tested_on": "Cancer Chemosensitizer", "assay": "Pre-clinical efficacy study: Cancer Chemosensitizer", "type": "in vivo", "conditions": "Rat", "from_the_text": "as §1"}, "Memory Recall": {"tested_on": "Memory Recall", "assay": "Pre-clinical efficacy study: Memory Recall", "type": "in vivo", "conditions": "Rat", "from_the_text": "as §1"}, "Wound Healing": {"tested_on": "Wound Healing", "assay": "Pre-clinical efficacy study: Wound Healing", "type": "in vivo", "conditions": "Pig", "from_the_text": "as §1"}, "Hemorrhagic Stroke": {"tested_on": "Hemorrhagic Stroke", "assay": "Pre-clinical efficacy study: Hemorrhagic Stroke", "type": "in vivo", "conditions": "Rat", "from_the_text": "as §1"}, "VEGF A gene": {"tested_on": "VEGF A gene", "assay": "Expression of HIF1 targeted genes in hypoxic conditions", "conditions": "gene upregulated with hypoxia", "from_the_text": "The subject disclosure relates to the treatment of various tumors and/or cancers (i.e., gliobastoma, pancreatic cancer, etc.). It is well established that tumors are hypoxic with many tumor types being highly hypoxic. Further, it is known that hypoxic tumors are more resistant to radiotherapy and chemotherapy. Through HIF1 alpha up-regulation, hypoxia is associated with multiple negative effects that lead to aggressive tumor phenotypes. These effects include increased angiogenesis, increased metastasis, as well as increased resistance to chemotherapy and radiation therapy. Hypoxia via HIF1a affects many genes involved in cancer progression. Bipolar trans carotenoids such as TSC alter expression of HIF1 targeted genes in hypoxic conditions."}}, "note": "“Also recorded” adds a separate entry of the source.", "data": [{"smiles": "CC(/C=C/C=C(\\C)C(=O)[O-])=C\\C=C\\C=C(C)\\C=C\\C=C(/C)C(=O)[O-].[Na+].[Na+]", "note": "[TSC, trans sodium crocetinate]", "values": [{"measurement": "Best Dosage", "setting": "Hemorrhagic Shock; Pig", "result": "Low"}, {"measurement": "Best Dosage", "setting": "Hemorrhagic Shock; Rat, low dose (for rats) 0.1 mg/kg, high 0.25 mg/kg", "result": "Low"}, {"measurement": "Best Dosage", "setting": "Ischemic Stroke; Rabbit", "result": "Low"}, {"measurement": "Best Dosage", "setting": "Ischemic Stroke; Rat", "result": "Low"}, {"measurement": "effect on tumor volume with cisplatin", "setting": "DMBA breast tumors; high dose (for rats) 0.25 mg/kg TSC 2 hours before 1 mg/kg cisplatin IP on days 0, 4, 11, 18, FIG. 2", "result": "efficacious; also recorded: significant improvement in tumor volume over the control"}, {"measurement": "tumor growth, timing of TSC injection", "setting": "DMBA breast tumors; high dose TSC 2 hours before gemcitabine 7.5 mg/kg", "result": "best and best results"}, {"measurement": "pseudoprogression (increase in tumor volume on day 7)", "setting": "DMBA breast tumors; high dose TSC 2 hours prior to doxorubicin", "result": "Pseudoprogression was also seen"}, {"measurement": "tumor growth with doxorubicin", "setting": "DMBA breast tumors; high dose TSC 2 hours prior to doxorubicin, FIG. 7", "result": "marked reduction in tumor growth in comparison with the control group"}, {"measurement": "pseudoprogression (increase in tumor volume on day 7)", "setting": "DMBA breast tumors; high dose TSC 2 hours prior to temozolomide, FIG. 6", "result": "pseudoprogression was seen"}, {"measurement": "pseudoprogression", "setting": "DMBA breast tumors; high dose TSC 2 hrs. prior to paclitaxel", "result": "Pseudoprogression was also seen"}, {"measurement": "tumor growth with paclitaxel", "setting": "DMBA breast tumors; high dose TSC 2 hrs. prior to paclitaxel, Days 0, 4, 8, 14, FIG. 8", "result": "marked reduction in tumor growth in comparison with the control group"}, {"measurement": "tumor growth, timing of TSC injection", "setting": "DMBA breast tumors; high dose TSC concurrently, 1 hour before or 2 hours before gemcitabine 7.5 mg/kg", "result": "reduced tumor growth relative to control"}, {"measurement": "tumor growth with gemcitabine", "setting": "DMBA breast tumors; high dose of TSC 2 hours before 5 mg/kg gemcitabine IP on days 0, 3, FIG. 4", "result": "substantially less tumor growth than those in the control group"}, {"measurement": "effect on tumor volume with gemcitabine", "setting": "DMBA breast tumors; high dose of TSC 2 hours before 10 mg/kg gemcitabine IP on days 0, 3, day 3, FIG. 3", "result": "efficacious; also recorded: significant decrease in tumor volume"}, {"measurement": "Best Dosage", "setting": "Critical Limb Ischemia", "result": "High"}, {"measurement": "oxygen partial pressure, duration of maximum", "setting": "[1]", "result": "sustained maximum oxygen partial pressure"}, {"measurement": "Best Dosage", "setting": "Parkinson's Disease", "result": "High"}, {"measurement": "duration of maximum reoxygenation", "setting": "hypoxic tissue; high dose of 0.75-2.0 mg/kg, e.g. 1.5 mg/kg", "result": "lasts for over an hour"}, {"measurement": "duration of maximum reoxygenation", "setting": "hypoxic tissue; low dose of 0.15-0.35 mg/kg", "result": "lasts for a short time"}, {"measurement": "time of maximum reoxygenation of hypoxic tissue after injection", "setting": "hypoxic tissue; low dose of 0.15-0.35 mg/kg, e.g. 0.25 mg/kg", "result": 50, "unit": "min"}, {"measurement": "Best Dosage", "setting": "Myocardial Infarction", "result": "Low"}, {"measurement": "Observed Survival Rate with TSC Treatment (Kaplan-Meier)", "setting": "newly diagnosed GBM; 1 year", "result": 71.2, "unit": "%"}, {"measurement": "Observed Survival Rate with TSC Treatment (Kaplan-Meier)", "setting": "newly diagnosed GBM; 2 years", "result": 36.3, "unit": "%"}, {"measurement": "reduction in tumor size", "setting": "newly diagnosed GBM; 37 patients with partial resection or no resection, MRI", "result": "vast majority of these 37 patients showed reduction in tumor size"}, {"measurement": "survival at 2 years vs historical controls", "setting": "newly diagnosed GBM; all groups of patients administered TSC in addition to SOC treatment", "result": "better survival at 2 years"}, {"measurement": "survival greater than rate in historical trial", "setting": "newly diagnosed GBM; at both 1 and 2 years", "result": 10, "unit": "%"}, {"measurement": "survivability at two years", "setting": "newly diagnosed GBM; biopsy-only patients", "result": 42.9, "unit": "%"}, {"measurement": "patients showing complete elimination of tumors", "setting": "newly diagnosed GBM; full-dose patients", "result": "~20", "unit": "%"}, {"measurement": "effect on glioblastoma multiforme tumors", "setting": "newly diagnosed GBM; low dose (0.25 mg/kg) 45 minutes before radiation", "result": "effective"}, {"measurement": "dose-limiting toxicities", "setting": "newly diagnosed GBM; nine patients, Phase I portion, half-dose and full dose TSC with radiation", "result": "No dose-limiting toxicities were identified"}, {"measurement": "increase in chance of survival at two years", "setting": "newly diagnosed GBM; subgroup of patients considered inoperable, vs control", "result": "over 100%"}, {"measurement": "alive at two years", "setting": "newly diagnosed GBM; subgroup of patients considered inoperable, less than 20 percent in the control", "result": 40, "unit": "%"}, {"measurement": "Best Dosage", "setting": "Cancer Chemosensitizer", "result": "High"}, {"measurement": "Best Dosage", "setting": "Memory Recall", "result": "High"}, {"measurement": "Best Dosage", "setting": "Wound Healing", "result": "High"}, {"measurement": "Best Dosage", "setting": "Hemorrhagic Stroke", "result": "Low"}, {"measurement": "VEGF A gene expression", "setting": "VEGF A gene", "result": "down regulated"}]}]}
